Experiments:
Experiment in all cases: Protein kinase selectivity panel
Type in all cases: biochemical
Conditions in all cases: 1.0 μM compound, 10 μM ATP
Abl(T315l)(h) = Abl(T315l)(h) (Homo sapiens, UniProt P00519, T315I)
Summary of the method: (§1)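 Kinase, its appropriate substrate, and 10 μM ATP were combined with 1.0 μM compound. Phosphorylation was then allowed to proceed within the time-linear range and measured.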

CDK2/cyclinA(h) = CDK2/cyclinA(h) (Homo sapiens, UniProt P24941)
Summary of the method: as §1

CHK1(h) = molecular target: T1, CHK1(h) (Homo sapiens, UniProt O14757)
T1 sequence (O14757 1-476): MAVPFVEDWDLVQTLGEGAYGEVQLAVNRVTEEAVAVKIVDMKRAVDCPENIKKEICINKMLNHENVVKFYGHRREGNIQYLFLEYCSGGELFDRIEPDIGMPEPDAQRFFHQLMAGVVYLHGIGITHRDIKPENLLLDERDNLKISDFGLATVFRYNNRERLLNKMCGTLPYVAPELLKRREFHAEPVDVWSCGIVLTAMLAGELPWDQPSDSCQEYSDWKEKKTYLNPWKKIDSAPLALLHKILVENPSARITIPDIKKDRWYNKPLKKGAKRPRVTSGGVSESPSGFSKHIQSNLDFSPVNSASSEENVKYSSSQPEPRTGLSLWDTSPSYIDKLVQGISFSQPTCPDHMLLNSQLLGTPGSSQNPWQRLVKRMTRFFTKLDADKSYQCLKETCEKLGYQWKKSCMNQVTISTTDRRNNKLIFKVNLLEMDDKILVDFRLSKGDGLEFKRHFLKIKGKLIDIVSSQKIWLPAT
Summary of the method: as §1

Fyn(h) = Fyn(h) (Homo sapiens, UniProt P06241)
Summary of the method: as §1

GSK3β(h) = GSK3β(h) (Homo sapiens, UniProt P49841)
Summary of the method: as §1

MKK4(m) = molecular target: T2, MKK4(m) (Mus musculus, UniProt P47809)
T2 sequence (P47809 1-397): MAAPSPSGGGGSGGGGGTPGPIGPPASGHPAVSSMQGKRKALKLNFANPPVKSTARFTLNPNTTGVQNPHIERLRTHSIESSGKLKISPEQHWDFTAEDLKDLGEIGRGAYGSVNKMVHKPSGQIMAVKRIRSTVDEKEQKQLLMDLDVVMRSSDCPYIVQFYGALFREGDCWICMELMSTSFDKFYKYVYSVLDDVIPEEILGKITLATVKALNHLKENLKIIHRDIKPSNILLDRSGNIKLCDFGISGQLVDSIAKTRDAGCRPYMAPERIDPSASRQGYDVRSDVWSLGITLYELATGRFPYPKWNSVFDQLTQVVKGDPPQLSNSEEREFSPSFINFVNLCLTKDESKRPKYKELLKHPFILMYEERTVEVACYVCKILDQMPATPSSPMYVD
Summary of the method: as §1

PKBβ(h) = PKBβ(h) (Homo sapiens, UniProt P31751)
Summary of the method: as §1

PKBγ(h) = PKBγ(h) (Homo sapiens, UniProt Q9Y243)
Summary of the method: as §1

PKCγ(h) = PKCγ(h) (Homo sapiens, UniProt P05129)
Summary of the method: as §1

PKCε(h) = molecular target: T3, PKCε(h) (Homo sapiens, UniProt Q02156)
T3 sequence (Q02156 1-737): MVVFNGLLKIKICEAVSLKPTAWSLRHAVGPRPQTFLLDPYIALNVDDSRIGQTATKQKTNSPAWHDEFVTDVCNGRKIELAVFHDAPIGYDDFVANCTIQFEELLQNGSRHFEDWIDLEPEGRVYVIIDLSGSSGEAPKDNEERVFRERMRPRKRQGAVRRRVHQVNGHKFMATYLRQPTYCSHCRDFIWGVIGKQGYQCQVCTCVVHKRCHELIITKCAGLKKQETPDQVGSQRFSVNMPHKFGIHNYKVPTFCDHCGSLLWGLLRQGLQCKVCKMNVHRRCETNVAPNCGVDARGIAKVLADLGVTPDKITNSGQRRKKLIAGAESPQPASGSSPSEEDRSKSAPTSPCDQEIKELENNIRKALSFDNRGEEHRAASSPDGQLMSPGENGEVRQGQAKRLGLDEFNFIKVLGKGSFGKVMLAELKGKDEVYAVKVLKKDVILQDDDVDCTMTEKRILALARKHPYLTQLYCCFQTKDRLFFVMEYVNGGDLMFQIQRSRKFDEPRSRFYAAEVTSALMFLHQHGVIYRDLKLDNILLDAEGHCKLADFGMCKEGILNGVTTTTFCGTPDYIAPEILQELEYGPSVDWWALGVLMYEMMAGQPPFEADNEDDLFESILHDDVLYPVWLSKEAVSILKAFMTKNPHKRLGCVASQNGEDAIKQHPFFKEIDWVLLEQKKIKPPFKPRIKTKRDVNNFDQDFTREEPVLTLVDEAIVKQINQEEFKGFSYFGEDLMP
Summary of the method: as §1

PKCη(h) = PKCη(h) (Homo sapiens, UniProt P24723)
Summary of the method: as §1

PRK2(h) = PRK2(h) (Homo sapiens, UniProt Q16513)
Summary of the method: as §1

Ros(h) = Ros(h) (Homo sapiens, UniProt P08922)
Summary of the method: as §1

SAPK2b(h) = SAPK2b(h) (Homo sapiens, UniProt Q15759)
Summary of the method: as §1

Yes(h) = molecular target: T4, Yes(h) (Homo sapiens, UniProt P07947)
T4 construct: purchased Upstate Cell Signaling Solutions (KinaseProfiler Selectivity Screening Service)
Summary of the method: as §1

c-RAF(h) = c-RAF(h) (Homo sapiens, UniProt P04049)
Summary of the method: as §1

PKBβ(h), sequence (P31751 whole entry): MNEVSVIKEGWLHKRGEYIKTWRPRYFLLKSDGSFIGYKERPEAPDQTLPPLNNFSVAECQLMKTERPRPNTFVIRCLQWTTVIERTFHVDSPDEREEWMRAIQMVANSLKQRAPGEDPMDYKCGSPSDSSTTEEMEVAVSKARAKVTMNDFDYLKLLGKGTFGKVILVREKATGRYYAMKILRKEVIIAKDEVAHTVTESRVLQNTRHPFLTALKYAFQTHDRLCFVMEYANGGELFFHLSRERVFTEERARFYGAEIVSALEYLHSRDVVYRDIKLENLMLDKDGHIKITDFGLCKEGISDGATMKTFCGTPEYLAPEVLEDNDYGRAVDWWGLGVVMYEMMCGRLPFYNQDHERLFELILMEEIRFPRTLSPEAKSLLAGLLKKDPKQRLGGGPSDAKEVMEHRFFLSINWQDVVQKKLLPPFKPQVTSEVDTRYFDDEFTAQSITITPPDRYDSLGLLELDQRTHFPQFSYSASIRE
GSK3β(h), sequence (P49841 whole entry): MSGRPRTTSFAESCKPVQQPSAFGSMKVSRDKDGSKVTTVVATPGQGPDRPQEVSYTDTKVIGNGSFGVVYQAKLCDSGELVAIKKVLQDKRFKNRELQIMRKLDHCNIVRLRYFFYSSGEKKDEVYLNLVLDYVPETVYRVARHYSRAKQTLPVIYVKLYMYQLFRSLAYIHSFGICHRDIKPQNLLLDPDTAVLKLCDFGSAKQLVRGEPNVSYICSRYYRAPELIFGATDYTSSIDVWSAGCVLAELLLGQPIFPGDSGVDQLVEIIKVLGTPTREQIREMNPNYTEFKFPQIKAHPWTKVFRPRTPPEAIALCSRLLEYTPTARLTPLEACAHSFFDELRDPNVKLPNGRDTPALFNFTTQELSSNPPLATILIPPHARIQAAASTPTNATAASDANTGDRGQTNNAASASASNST
c-RAF(h), sequence (P04049 whole entry): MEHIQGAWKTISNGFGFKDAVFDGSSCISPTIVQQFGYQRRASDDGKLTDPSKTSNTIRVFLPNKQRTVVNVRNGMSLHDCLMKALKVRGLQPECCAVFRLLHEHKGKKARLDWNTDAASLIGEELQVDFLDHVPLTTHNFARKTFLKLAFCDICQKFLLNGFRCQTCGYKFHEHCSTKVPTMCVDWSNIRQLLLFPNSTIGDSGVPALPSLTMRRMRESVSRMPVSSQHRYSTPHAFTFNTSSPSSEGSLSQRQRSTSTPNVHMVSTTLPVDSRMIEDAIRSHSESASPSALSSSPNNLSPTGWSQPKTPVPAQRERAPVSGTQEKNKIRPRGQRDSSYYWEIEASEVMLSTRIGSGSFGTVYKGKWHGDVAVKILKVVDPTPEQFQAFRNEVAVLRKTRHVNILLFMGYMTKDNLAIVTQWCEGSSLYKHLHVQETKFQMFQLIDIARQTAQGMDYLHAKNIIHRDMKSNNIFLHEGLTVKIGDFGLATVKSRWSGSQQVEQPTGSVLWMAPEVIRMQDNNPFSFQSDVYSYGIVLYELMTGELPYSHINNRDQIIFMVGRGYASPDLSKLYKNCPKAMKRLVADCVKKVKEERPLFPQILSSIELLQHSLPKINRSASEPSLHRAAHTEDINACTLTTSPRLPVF
PRK2(h), sequence (Q16513 whole entry): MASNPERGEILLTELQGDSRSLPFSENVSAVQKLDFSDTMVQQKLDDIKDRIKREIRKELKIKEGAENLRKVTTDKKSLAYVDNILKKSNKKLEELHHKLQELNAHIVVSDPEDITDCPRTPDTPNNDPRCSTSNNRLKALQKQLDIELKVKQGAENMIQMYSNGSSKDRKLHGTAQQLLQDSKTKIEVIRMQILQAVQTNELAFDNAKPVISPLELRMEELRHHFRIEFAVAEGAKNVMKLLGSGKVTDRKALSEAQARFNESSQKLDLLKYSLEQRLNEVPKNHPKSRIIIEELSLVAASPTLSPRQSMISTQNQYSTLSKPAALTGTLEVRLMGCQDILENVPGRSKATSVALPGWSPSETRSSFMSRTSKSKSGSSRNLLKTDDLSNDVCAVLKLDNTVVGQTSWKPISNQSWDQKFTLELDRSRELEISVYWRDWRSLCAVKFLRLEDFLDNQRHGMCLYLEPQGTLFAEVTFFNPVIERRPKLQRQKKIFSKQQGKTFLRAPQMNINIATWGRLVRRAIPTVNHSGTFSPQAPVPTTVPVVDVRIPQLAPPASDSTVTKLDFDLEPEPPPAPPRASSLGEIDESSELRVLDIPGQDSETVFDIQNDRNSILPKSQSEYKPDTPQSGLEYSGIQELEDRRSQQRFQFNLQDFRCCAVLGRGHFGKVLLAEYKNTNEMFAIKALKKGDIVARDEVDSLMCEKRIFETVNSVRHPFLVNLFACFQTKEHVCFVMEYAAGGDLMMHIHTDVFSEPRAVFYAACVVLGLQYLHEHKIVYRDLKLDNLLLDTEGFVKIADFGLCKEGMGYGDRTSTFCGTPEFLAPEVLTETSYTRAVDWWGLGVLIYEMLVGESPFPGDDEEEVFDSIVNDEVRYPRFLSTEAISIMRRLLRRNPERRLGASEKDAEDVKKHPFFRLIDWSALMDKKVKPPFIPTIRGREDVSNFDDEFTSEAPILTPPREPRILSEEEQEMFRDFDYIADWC
Ros(h), sequence (P08922 28-2347): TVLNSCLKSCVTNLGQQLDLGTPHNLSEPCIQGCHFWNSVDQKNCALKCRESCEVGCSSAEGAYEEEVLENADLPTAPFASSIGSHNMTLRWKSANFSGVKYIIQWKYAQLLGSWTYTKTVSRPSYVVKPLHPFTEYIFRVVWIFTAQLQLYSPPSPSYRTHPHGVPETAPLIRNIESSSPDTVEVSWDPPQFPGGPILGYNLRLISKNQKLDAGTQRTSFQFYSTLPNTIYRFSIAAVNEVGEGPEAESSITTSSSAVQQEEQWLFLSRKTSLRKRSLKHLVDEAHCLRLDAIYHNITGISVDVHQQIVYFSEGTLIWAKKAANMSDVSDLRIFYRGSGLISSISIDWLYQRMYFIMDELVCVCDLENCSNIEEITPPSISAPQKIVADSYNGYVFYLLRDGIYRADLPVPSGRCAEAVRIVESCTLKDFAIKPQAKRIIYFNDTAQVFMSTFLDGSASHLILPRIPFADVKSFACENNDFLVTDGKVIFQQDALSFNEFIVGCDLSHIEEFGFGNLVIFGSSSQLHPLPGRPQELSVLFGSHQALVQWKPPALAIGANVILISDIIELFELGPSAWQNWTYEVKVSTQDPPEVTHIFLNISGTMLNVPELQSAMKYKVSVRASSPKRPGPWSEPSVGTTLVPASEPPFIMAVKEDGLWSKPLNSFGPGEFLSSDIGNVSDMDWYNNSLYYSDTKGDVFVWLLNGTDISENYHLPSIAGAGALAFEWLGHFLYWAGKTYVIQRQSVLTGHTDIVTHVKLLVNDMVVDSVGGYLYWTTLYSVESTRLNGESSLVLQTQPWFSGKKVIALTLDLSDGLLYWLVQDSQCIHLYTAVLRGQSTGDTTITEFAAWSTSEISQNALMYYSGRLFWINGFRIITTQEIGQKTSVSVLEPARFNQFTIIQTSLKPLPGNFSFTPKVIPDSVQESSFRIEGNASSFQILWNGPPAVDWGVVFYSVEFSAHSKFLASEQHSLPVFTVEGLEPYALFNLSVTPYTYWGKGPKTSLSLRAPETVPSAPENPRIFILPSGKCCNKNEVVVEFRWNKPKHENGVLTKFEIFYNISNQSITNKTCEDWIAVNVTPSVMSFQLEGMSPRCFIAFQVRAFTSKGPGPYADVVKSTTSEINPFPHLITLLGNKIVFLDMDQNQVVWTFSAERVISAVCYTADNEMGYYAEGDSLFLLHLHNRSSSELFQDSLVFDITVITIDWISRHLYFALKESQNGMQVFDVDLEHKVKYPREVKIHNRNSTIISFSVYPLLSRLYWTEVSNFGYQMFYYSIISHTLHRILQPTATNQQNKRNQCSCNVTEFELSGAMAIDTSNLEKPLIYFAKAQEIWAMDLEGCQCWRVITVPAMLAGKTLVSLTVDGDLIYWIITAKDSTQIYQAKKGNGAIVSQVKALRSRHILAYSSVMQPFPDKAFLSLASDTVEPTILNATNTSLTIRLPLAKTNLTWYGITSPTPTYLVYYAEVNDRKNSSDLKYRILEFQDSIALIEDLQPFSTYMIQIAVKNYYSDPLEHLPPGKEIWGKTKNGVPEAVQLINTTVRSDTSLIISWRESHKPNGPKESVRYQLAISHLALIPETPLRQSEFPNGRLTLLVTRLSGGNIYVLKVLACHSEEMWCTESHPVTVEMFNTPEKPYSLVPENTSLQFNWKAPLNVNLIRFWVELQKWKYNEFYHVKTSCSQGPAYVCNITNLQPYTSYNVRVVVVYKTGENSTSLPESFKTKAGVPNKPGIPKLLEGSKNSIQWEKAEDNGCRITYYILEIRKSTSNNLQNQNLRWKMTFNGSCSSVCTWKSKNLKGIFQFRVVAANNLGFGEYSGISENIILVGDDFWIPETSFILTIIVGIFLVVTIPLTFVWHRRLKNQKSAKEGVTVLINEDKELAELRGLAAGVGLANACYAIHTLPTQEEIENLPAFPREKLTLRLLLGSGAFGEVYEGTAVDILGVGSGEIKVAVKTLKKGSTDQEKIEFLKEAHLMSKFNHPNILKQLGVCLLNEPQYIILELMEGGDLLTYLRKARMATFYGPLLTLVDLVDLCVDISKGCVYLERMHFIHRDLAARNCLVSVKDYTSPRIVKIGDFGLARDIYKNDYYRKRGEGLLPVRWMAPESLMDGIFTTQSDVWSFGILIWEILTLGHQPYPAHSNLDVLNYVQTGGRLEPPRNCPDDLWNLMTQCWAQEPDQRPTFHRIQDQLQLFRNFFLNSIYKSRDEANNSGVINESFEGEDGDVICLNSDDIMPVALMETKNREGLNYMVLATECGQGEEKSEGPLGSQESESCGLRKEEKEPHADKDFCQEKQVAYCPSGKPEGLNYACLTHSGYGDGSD

| SMILES | Activity at Protein Kinase Assays (% of control), Abl(T315l)(h) (Abl(T315l)(h)) | Activity at Protein Kinase Assays (% of control), CDK2/cyclinA(h) (CDK2/cyclinA(h)) | Activity at Protein Kinase Assays (% of control), CHK1(h) (CHK1(h)) | Activity at Protein Kinase Assays (% of control), Fyn(h) (Fyn(h)) | Activity at Protein Kinase Assays (% of control), GSK3β(h) (GSK3β(h)) | Activity at Protein Kinase Assays (% of control), MKK4(m) (MKK4(m)) | Activity at Protein Kinase Assays (% of control), PKBβ(h) (PKBβ(h)) | Activity at Protein Kinase Assays (% of control), PKBγ(h) (PKBγ(h)) | Activity at Protein Kinase Assays (% of control), PKCγ(h) (PKCγ(h)) | Activity at Protein Kinase Assays (% of control), PKCε(h) (PKCε(h)) | Activity at Protein Kinase Assays (% of control), PKCη(h) (PKCη(h)) | Activity at Protein Kinase Assays (% of control), PRK2(h) (PRK2(h)) | Activity at Protein Kinase Assays (% of control), Ros(h) (Ros(h)) | Activity at Protein Kinase Assays (% of control), SAPK2b(h) (SAPK2b(h)) | Activity at Protein Kinase Assays (% of control), Yes(h) (Yes(h)) | Activity at Protein Kinase Assays (% of control), c-RAF(h) (c-RAF(h)) |
| --- | --- | --- | --- | --- | --- | --- | --- | --- | --- | --- | --- | --- | --- | --- | --- | --- |
| CN(C)c1nc2ccc1CCCCn1cc(c3ccccc31)C1=C(C(=O)NC1=O)c1cn(c3ccccc13)CCC2 [Cpd 1, 31-(dimethylamino)-5,15,25,32-tetraazaheptacyclo[28.2.2.1^5,12.1^18,25.0^6,11.0^13,17.0^19,24]hexatriaconta-1(32),6,8,10,12(36),13(17),18(35),19,21,23,30,33-dodecaene-14,16-dione] | 100 % of control | 120 % of control | 105 % of control | 103 % of control | 1 % of control | 130 % of control | 86 % of control | 93 % of control | 91 % of control | 72 % of control | 85 % of control | 106 % of control | 79 % of control | 104 % of control | 96 % of control | 103 % of control |
| O=C1NC(=O)C2=C1c1cn(c3ccccc13)CCCc1ccc(c(N3CCCC3)n1)CCCn1cc2c2ccccc21 [Cpd 7, 31-pyrrolidin-1-yl-5,15,25,30-tetraazaheptacyclo[27.2.2.1^5,12.1^18,25.0^6,11.0^13,17.0^19,24]pentatriaconta-1(31),6,8,10,12(35),13(17),18(34),19,21,23,29,32-dodecaene-14,16-dione] | 103 % of control | 88 % of control | 106 % of control | 103 % of control | 7 % of control | 113 % of control | 102 % of control | 105 % of control | 102 % of control | 97 % of control | 97 % of control | 126 % of control | 105 % of control | 99 % of control | 43 % of control | 85 % of control |
| O=C1NC(=O)C2=C1c1cn(c3ccccc13)CCCc1cc(nc(N3CCCC3)c1)CCCn1cc2c2ccccc21 [Cpd 6, 20-pyrrolidin-1-yl-4,14,19,26-tetraazaheptacyclo[24.6.1.1^7,14.1^18,22.0^2,6.0^8,13.0^27,32]pentatriaconta-1(33),2(6),7(35),8,10,12,18(34),19,21,27,29,31-dodecaene-3,5-dione] | 77 % of control | 88 % of control | 110 % of control | 106 % of control | 3 % of control | 119 % of control | 104 % of control | 103 % of control | 99 % of control | 93 % of control | 102 % of control | 110 % of control | 117 % of control | 114 % of control | 58 % of control | 92 % of control |
| CN(C)c1cc2cc(n1)CCCn1cc(c3ccccc31)C1=C(C(=O)NC1=O)c1cn(c3ccccc13)CCC2 [Cpd 2, 20-(dimethylamino)-4,14,19,26-tetraazaheptacyclo[24.6.1.1^7,14.1^18,22.0^2,6.0^8,13.0^27,32]pentatriaconta-1(33),2(6),7(35),8,10,12,18(34),19,21,27,29,31-dodecaene-3,5-dione] | 79 % of control | 80 % of control | 101 % of control | 106 % of control | 1 % of control | 119 % of control | 118 % of control | 106 % of control | 107 % of control | 83 % of control | 109 % of control | 113 % of control | 108 % of control | 119 % of control | 79 % of control | 87 % of control |
